According to article PMC11984407, “A natural small molecule isoginkgetin alleviates hypercholesterolemia and atherosclerosis by targeting ACLY” (Theranostics, 2025):

Experiments:
[1] = tested on: HepG2 cells; assay: DiI-LDL uptake assay; type: cell-based; settings: HepG2, irrespective of dose or time
Experimental: HepG2 cells were cultured in 24-well plates and incubated in DMEM supplemented with 2% LPDS and 20 µg/mL DiI-LDL (20614ES76, YEASEN, Shanghai, China) for four h at 37 °C in the dark. Subsequently, the cells were rinsed twice with PBS containing 0.4% albumin and then washed three times with PBS. To quantify the fluorescence, 400 µL of isopropanol was added to each well, and the plates were incubated at room temperature for 20 min with continuous shaking. Subsequently, 200 µL aliquots were analyzed using a SpectraMax M2e Microplate Reader (Molecular Devices) at wavelengths of 520-570 nm, as previously described previously.

[2] = Pharmacokinetics study in ICR mice; type: in vivo, mouse
Experimental: Pharmacokinetic properties were investigated using ICR mice weighing between 18 and 22 grams. Six mice were assigned into two groups, with three in each group. ISOGK was administered via intragastric and tail vein injections. For both the intravenous and intragastric administration groups, cheek blood samples of approximately 0.05 mL were collected at 5 min, 15 min, 30 min, 1 h, 2 h, 4 h, 6 h, 8 h, and 24 h post-administration. The plasma concentration of compound in the mice was measured using the LC-MS/MS technique. Pharmacokinetic parameters were then analyzed using WinNonlin software.

[3] = target: T1, ACLY (Mus musculus, UniProt Q91V92); assay: ACLY activity in vivo, mouse liver extracts (MDH-coupled method); set-up: from tissue; host or cells: liver of Apoe-/- mice dosed with ISOGK; settings: male and female Apoe-/- mice, 20 mg/kg/day, 8 weeks
T1 sequence (Q91V92 1-1091): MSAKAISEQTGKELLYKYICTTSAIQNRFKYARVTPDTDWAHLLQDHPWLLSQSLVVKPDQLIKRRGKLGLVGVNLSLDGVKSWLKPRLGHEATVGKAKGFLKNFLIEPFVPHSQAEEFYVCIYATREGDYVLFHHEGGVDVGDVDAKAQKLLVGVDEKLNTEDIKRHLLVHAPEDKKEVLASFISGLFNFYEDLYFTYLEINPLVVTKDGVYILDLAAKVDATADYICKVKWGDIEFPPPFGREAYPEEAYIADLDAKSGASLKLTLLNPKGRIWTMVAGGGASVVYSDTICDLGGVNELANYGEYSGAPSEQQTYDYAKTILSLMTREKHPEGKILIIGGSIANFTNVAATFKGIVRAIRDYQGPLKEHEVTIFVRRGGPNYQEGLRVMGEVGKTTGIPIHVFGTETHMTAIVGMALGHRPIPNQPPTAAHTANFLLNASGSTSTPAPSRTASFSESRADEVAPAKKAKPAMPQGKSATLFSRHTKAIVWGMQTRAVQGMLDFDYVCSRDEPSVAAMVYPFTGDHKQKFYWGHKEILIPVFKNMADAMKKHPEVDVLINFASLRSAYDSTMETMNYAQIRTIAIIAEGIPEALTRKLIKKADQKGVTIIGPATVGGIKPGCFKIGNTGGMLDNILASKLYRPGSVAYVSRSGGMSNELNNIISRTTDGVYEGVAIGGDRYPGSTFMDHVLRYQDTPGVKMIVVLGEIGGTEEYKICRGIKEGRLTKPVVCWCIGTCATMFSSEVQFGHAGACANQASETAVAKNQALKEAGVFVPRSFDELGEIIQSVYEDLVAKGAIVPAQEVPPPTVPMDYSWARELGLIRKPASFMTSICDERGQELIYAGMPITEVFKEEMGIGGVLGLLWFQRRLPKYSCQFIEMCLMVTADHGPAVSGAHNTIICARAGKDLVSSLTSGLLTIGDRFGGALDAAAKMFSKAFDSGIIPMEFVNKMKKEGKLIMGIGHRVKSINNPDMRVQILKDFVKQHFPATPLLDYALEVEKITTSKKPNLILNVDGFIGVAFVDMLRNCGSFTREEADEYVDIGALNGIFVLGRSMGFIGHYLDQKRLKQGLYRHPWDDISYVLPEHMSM
Experimental: The activity of the ACLY enzyme was assayed utilizing malate dehydrogenase (MDH)-coupled method kits (BC4240, Solarbio, Beijing, China). In summary, liver extracts were incubated in a reaction buffer comprising 20 mM citrate, 10 mM MgCl₂, 10 mM DTT, 0.5 U/ml of malic dehydrogenase, 0.33 mM CoASH, and 0.14 mM NADH, both in the presence and absence of 5 mM ATP. The quantity of oxaloacetate produced by ACLY catalysis was determined by measuring the alteration in absorbance at 340 nm, which corresponds to the depletion of NADH during the MDH-catalyzed reaction. After accounting for background variations in absorbance in the absence of ATP, the relative ACL activities were computed by normalizing the data to the weight of the liver tissue.

[4] = tested on: primary mouse hepatocytes; assay: Nile Red staining of primary hepatocytes from high fat diet mice; type: cell-based; settings: varying concentrations, 12 h, hepatocytes from 16-week high fat diet mice
From the text: Primary hepatocytes were isolated from male C57BL/6J mice fed a high-fat diet (HFD, 60 kcal% fat, 20 kcal% protein, 20 kcal% carbohydrate; D12492; RESEARCH DIETS, New Brunswick, NJ, USA) for 16 weeks according to our previous study. At the end of experiment, the mice were initially anaesthetized and subsequently subjected to perfusion with Liver Perfusion Medium (17701-038; Thermo Fisher Scientific, Waltham, MA, USA) via the portal vein, followed by Liver Digestion Medium (17701-034, Thermo Fisher Scientific, Waltham, MA, USA). Following perfusion, the liver was extracted and passed through a 100 μm cell strainer. The resulting cells were subjected to centrifugation at 50×g for 1 min, after which cells were incubated in DMEM supplemented with 10% FBS (F05-001-B160216; Bio-One Biotechnology, Guangzhou, China) and 1% penicillin-streptomycin (15140-122; Gibco by Invitrogen, Carlsbad, CA, USA) at 37 °C.
For the Nile Red staining procedure, primary mouse hepatocytes were treated with IOSGK at varying concentrations for a period of 12 h. Subsequently, the cells were fixed with 4% paraformaldehyde (PFA) and stained with Nile Red (N1142, Invitrogen, Carlsbad, CA, USA). The intracellular accumulation of lipids was visualized and quantified using a laser scanning confocal microscope (TCS SP8; Leica, Wetzlar, Germany).

Which results are given for `COc1ccc(-c2cc(=O)c3c(O)cc(O)c(-c4cc(-c5cc(=O)c6c(O)cc(O)cc6o5)ccc4OC)c3o2)cc1` [ISOGK, Isoginkgetin]?
DiI-LDL uptake [1]: no significant effect on LDL uptake; peak plasma concentration ([2]; intravenous 5 mg/kg): 710 ng/mL; Tmax ([2]; mouse, plasma, intravenous 5 mg/kg, read-out: time of peak plasma concentration (converted)): 5 min; plasma levels after oral administration ([2]; oral 20 mg/kg): almost undetectable; oral bioavailability ([2]; oral 20 mg/kg vs intravenous 5 mg/kg): low oral bioavailability; ACLY enzyme activity in liver tissue [3]: significantly inhibits ACLY activity; hepatic lipid levels (Nile Red staining) [4]: reduced hepatic lipid levels
